# Non-standard residues stand in square brackets, D forms with d. No end group written: not given here.
# Legend:
# KM12SM cells [1] = assay: MTT proliferation assay; type: cell-based, human; conditions: with IL-13, peptide 1 μg/ml, 48 h
# Description: (§1) Recombinant human IL13 was used at […] (13) and was purchased from PeproTech. IL13Rα2-derived peptides (IL13Rα2D1: GSETWKTIITKN, SEQ ID NO: 3; IL13Rα2D1S: WKTIITKN, SEQ ID NO: 1; IL13Rα2Nter: FEIVDPGY, SEQ ID NO: 14; IL13Rα2Cter WSIPLGPI, SEQ ID NO: 15; IL13Rα2D1S-1A: WATIITKN, SEQ ID NO: 16; IL13Rα2D1S-2A WKAIITKN, SEQ ID NO: 17; IL13Rα2D1S-3A WKTAITKN, SEQ ID NO: 18; IL13Rα2D1S-4A WKTIATKN, SEQ ID NO: 19; IL13Rα2D1S-5A WKTIIAKN, SEQ ID NO: 20; IL13Rα2D1S-6A WKTIITAN, SEQ ID NO: 21) were synthesized using solid phase chemistry with a Focus XC instrument (AAPPtec). The enantio version D-IL13Rα2D1 (D-D1) peptide (GSETWKTIITKN, SEQ ID NO: 3) composed entirely by D-amino acids was purchased from Proteogenix (Schiltigheim, France). […]
# (§2) Binding of D1 peptide to IL-13 was monitored by surface plasmon resonance on a BIAcore 3000 instrument (BIAcore Inc, Switzerland). […] The interaction between D1 peptide and the immobilized IL13 was determined by changes in the RU at different D1 concentrations. […] Cell proliferation was determined by absorbance at 560 nm and comparison with control cells collected ab initium. […] Bound cells were lysed with 1% SDS in PBS, and the extent of the adhesion was quantified using a fluorescence analyzer (POLARstar Galaxy, BMG Labtechnologies). […] Effective migration speed was calculated from the distance covered by cells in 24 h in each side of the wound. […]
# KM12SM cells [2] = assay: Metastasis experiment in nude mice, Kaplan-Meier survival after intrasplenic inoculation; type: in vivo, Swiss nude mice
# Description: (§3) FIG. 6. D1 and D-D1 peptides increase the survival of mice inoculated with metastatic tumor cells and inhibits glioblastoma xenografts. (A) Liver homing experiment. Metastatic KM12SM cells were treated with the IL13 and/or D1 peptide and inoculated in spleen of nude mice. […] (C) 10^7 U251 cells were inoculated subcutaneously into the flanks of mice. Eleven days after cell inoculation, when tumours reached a size of 100 mm^3, mice were treated with D-D1 peptide (3 μg/100 μL of PBS) subcutaneously or with saline solution in a total of 7 doses during 15 days. Tumours were measured every 2-3 days. **p<0.01 vs control.
# Binding of D1 peptide to IL-13 was monitored by surface plasmon resonance on a BIAcore 3000 instrument (BIAcore Inc, Switzerland). IL-13 was covalently amino coupled to a CM-5 sensor chip. An immobilization level of 7700 RU was obtained. A nonderivatized flow cell was used as a control. The interaction between D1 peptide and the immobilized IL13 was determined by changes in the RU at different D1 concentrations. Cell Signaling Analysis Cancer cells were incubated 3 h in DMEM without serum, detached with 2 mM EDTA, washed and treated with IL-13 (PeproTech) (10 ng/ml) for different times in presence or absence of IL13Rα2D1 peptide. Then, cells were lysed with lysis buffer (1% Igepal, 50 mM Tris-HCl, 100 mM NaCl, 2 mM MgCl2, 10% glycerol, protease inhibitors (Complete Mini, Roche) and phosphatase inhibitor cocktails 2 and 3 (Sigma-Aldrich)). Protein extracts (60 μg) were separated in SDS-PAGE and transferred to nitrocellulose membranes, which were incubated with primary antibodies, washed and incubated with HRP-conjugated secondary antibodies (Sigma-Aldrich). […] Proliferation Assays Cancer cells were seeded at 1×10^4 cells/well on 96-well plates and were incubated for 48 h at 37° C. in DMEM with 0.5% serum in presence of IL-13 (10 ng/ml) and the indicated peptides, followed by 1 h incubation with Thyazolyl Blue Tretrazolium Bromide (MTT) (0.6 mg/mL) (Sigma-Aldrich). Cell proliferation was determined by absorbance at 560 nm and comparison with control cells collected ab initium. Cell Adhesion Assays Cancer cells were starved for 3 h, labeled with BCECF-AM (Molecular Probes), detached with EDTA/PBS and incubated in DMEM in the presence of IL-13 and the indicated peptides for 10 min at 37° C. Then, 6×10^4 cells in 100 μL were added to 96-well plates previously coated with Matrigel (0.4 μg/mm^2), and the plates were incubated for 25 min at 37° C. Subsequently, non-adhered cells were removed by three washes with DMEM. Bound cells were lysed with 1% SDS in PBS, and the extent of the adhesion was quantified using a fluorescence analyzer (POLARstar Galaxy, BMG Labtechnologies). Wound Healing Assays Cancer cells were cultured to confluence in Matrigel-coated plates (0.4 μg/mm^2), and a 1 mm-wide wound was done across the monolayer, which was incubated in serum-free medium alone or with IL-13 (10 ng/mL), in the presence or absence of the indicated peptides. Pictures were taken immediately and after 24 h culture at 37° C. after the injury. Effective migration speed was calculated from the distance covered by cells in 24 h in each side of the wound. Invasion Assays For Matrigel invasion assays, 6×10^4 cells were loaded onto […] pore-size filters coated with […] of Matrigel (1:3 dilution; BD Biosciences) in Transwell plates (Costar) in presence of the indicated peptides. The lower compartment of the invasion chamber was filled with IL-13 (10 ng/mL). After 48 h, non-invading cells were removed from the upper surface of the filter, and cells that migrated through the filter were fixed with 4% paraformaldehyde (Sigma-Aldrich), stained with crystal violet and counted under a microscope. […] Swiss nude mice (Charles River) (n=5 per condition) were inoculated in the spleen with 1.5×10^6 KM12SM cells in 0.1 mL PBS in presence or absence of the indicated peptides (1 μg/mL). A day after inoculation, mice were subjected to removal of the spleen. […]
# KM12SM cells [3] = assay: Cell adhesion assay to Matrigel; type: cell-based, human; conditions: with IL-13, peptide 1 μg/ml
# Description: as §1, §2
# KM12SM cells [4] = assay: Cell invasion assay through Matrigel; type: cell-based, human; conditions: with IL-13, peptide 1 μg/ml, 48 h
# Description: as §1, §2
# [5] = test system: U251 glioblastoma xenografts; assay: Glioblastoma xenograft tumour growth; type: in vivo, mice; conditions: 3 μg/100 μL PBS subcutaneously, 7 doses during 15 days, start at 100 mm^3; p<0.01 vs control
# Description: as §3
# Additionally, the capacity of the D-D1 peptide to inhibit tumour growth in U251 glioblastoma xenografts was tested. For glioblastoma xenografts, 10^7 U251 cells were inoculated subcutaneously into the flanks of mice. Eleven days after cell inoculation, when tumours reached a size of 100 mm^3, mice were treated with D-D1 peptide (3 μg/100 μL of PBS) subcutaneously or with saline solution in a total of 7 doses during 15 days. Tumours were measured every 2-3 days.
sequence,measurement,setting,value
GSETWKTIITKN (G[dS][dE][dT][dW][dK][dT][dI][dI][dT][dK][dN]) [D-D1 peptide],Inhibition of IL-13-stimulated cell proliferation (MTT),KM12SM cells [1],"inhibit cell adhesion, invasion and proliferation"
same,"Mice surviving the experimental endpoint, without further treatment","KM12SM cells [2]; KM12SM intrasplenic, cells with peptide 1 μg/ml only, n=5 per condition",one
same,"Metastatic lesions in surviving mice, without further treatment","KM12SM cells [2]; KM12SM intrasplenic, cells with peptide only",without lesions
same,"Mice surviving the experimental endpoint, with peptide treatment","KM12SM cells [2]; KM12SM intrasplenic, cells with peptide plus 7 i.v. doses of 3 μg, n=5 per condition",two
same,"Metastatic lesions at necropsy in surviving mice, with peptide treatment","KM12SM cells [2]; KM12SM intrasplenic, cells with peptide plus i.v. treatment",no metastatic lesions at the necropsy
same,"Mouse survival, cells inoculated with peptide plus intravenous peptide treatment","KM12SM cells [2]; KM12SM intrasplenic, peptide 1 μg/ml with the cells, then 7 i.v. doses of 3 μg over 2 weeks, n=5",remarkable increase in survival
same,"Mouse survival, cells inoculated with peptide, without further treatment","KM12SM cells [2]; KM12SM intrasplenic, peptide 1 μg/ml with the cells, n=5",significant increase
same,Change of survival of treated mice,"KM12SM cells [2]; KM12SM metastasis model, treated mice versus control",more than doubling the survival
same,Inhibition of IL-13-stimulated cell adhesion to Matrigel,KM12SM cells [3],"inhibit cell adhesion, invasion and proliferation"
same,Inhibition of IL-13-stimulated cell invasion through Matrigel,KM12SM cells [4],"inhibit cell adhesion, invasion and proliferation"
same,Tumour growth of U251 xenografts,[5],significant growth arrest accompanied by a regression in the tumour size
